From patent US20230091047A1 (priority 2019, published 2023) come the findings set out here.

Data set [1] concerns HBV (HepG2.117 cell line, inducibly HBV producing). As to the kind of experiment: Anti-HBV activity: intracellular HBV DNA by real-time PCR in HepG2.117 cells after 3 days of treatment. The data set is classed as cell-based, hepatitis B virus. The method in brief:
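Tet-off HepG2.117; HBV replication induced (no doxycycline); serial compound dilutions, 3 d; intracellular HBV DNA by real-time PCR, HBV-specific primers/probe.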

The nature of another data set: in vitro. Particulars: human, HepG2 or HepG2.117 cells, mean value. The data set is classed as cell-based. The method in brief: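 Luminescent ATP quantitation served as the viability endpoint following a 3- or 4-day incubation with test compounds.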
Setting [2] is: Hepatitis B virus, HepG2.117, 72 h, HepG2.117 cells, 3 days of treatment, intracellular HBV DNA by real-time PCR; mean value; read-out: EC50 (μM, mean value).
[3] abbreviates: 3-days incubation (unmarked values), ATPlite.
[4] abbreviates: Hepatitis B virus, HepG2.117, 72 h, HepG2.117 cells, intracellular HBV DNA by real-time PCR, 3 days of treatment, mean value; read-out: EC50 (μM, mean value).
Where [5] appears, read: ATPlite, 3-days incubation (not marked with *).

Where two headings read alike, the source gives them in different places. Some results are limits rather than exact numbers.

Broadly, the EC50 is the concentration that produces a half-maximal response. Usually CC50 stands for the concentration at which the toxic effect on the cells reaches its halfway point. A low value points to harm at low concentration. Take `CNC(=O)c1ccc(-n2c(N[C@@H](C)CCO)nc3c(c2=O)C[C@@H](C)N(C(=O)c2ccc(Cl)c(Cl)c2)C3)cc1` [Compound C276, 4-[(6R)-7-(3,4-dichlorobenzoyl)-2-{[(2S)-4-hydroxybutan-2-yl]amino}-6-methyl-4-oxo-5,6,7,8-tetrahydropyrido[3,4-d]pyrimidin-3(4H)-yl]-N-methylbenzamide]: the EC50 in data set [1] (setting [2]) was 1.68 µM. In addition, the CC50 at 3 days in the data set “in vitro” (setting [3]) was > 50 µM.

Turning to `COc1ccc(CNc2nc3c(c(=O)n2Cc2ccccc2)CCN(C(=O)c2ccc(Cl)c(Cl)c2)C3)cc1` [Compound C41, 3-benzyl-7-(3,4-dichlorobenzoyl)-2-{[(4-methoxyphenyl)methyl]amino}-5,6,7,8-tetrahydropyrido[3,4-d]pyrimidin-4(3H)-one], the EC50 in data set [1] (setting [2]) came to 8.7 µM. Also, the CC50 at 3 days in “in vitro” (setting [3]) is > 50 µM.

In the case of `CNC(=O)c1ccc(-n2c(NC(C)C)nc3c(c2=O)C[C@@H](C)N(C(=O)c2cc4c(C)cc(F)cc4[nH]2)C3)cc1` [Compound C564], the EC50 in data set [1] (setting [4]) was 0.02 µM. This compound also registered a CC50 at 3 days in “in vitro” (setting [5]) of 21.7 µM.

Consider `Cc1nnc(-c2ccc(-n3c(NC(C)C)nc4c(c3=O)C[C@@H](C)N(C(=O)c3ccc(Cl)c(Cl)c3)C4)cc2)s1` [Compound C245, (6R)-7-(3,4-dichlorobenzoyl)-6-methyl-3-[4-(5-methyl-1,3,4-thiadiazol-2-yl)phenyl]-2-[(propan-2-yl)amino]-5,6,7,8-tetrahydropyrido[3,4-d]pyrimidin-4(3H)-one], for which the EC50 in data set [1] (setting [2]) was found to be 0.17 µM. In “in vitro” (setting [3]), the CC50 at 3 days was > 50 µM.

Regarding `CNC(=O)c1ccc(-n2c(N3CCC[C@H]3C)nc3c(c2=O)C[C@@H](C)N(C(=O)c2ccc(Cl)c(Cl)c2)C3)cc1` [Compound C252, 4-[(6R)-7-(3,4-dichlorobenzoyl)-6-methyl-2-[(2R)-2-methylpyrrolidin-1-yl]-4-oxo-5,6,7,8-tetrahydropyrido[3,4-d]pyrimidin-3(4H)-yl]-N-methylbenzamide], the EC50 in data set [1] (setting [2]) was 0.04 µM. In addition, it took 25.9 µM to reach half-maximal cytotoxicity in “in vitro” (setting [3]) (CC50 at 3 days).

Turning to `CNC(=O)c1ccc(-n2c(N(C)Cc3cccc(OC)c3)nc3c(c2=O)C[C@@H](C)N(C(=O)c2ccc(Cl)c(Cl)c2)C3)cc1` [Compound C457], the EC50 in data set [1] (setting [4]) turned out to be 0.1 µM. Further, the CC50 at 3 days in the data set “in vitro” (setting [5]) is 38.1 µM.

Regarding `CNC(=O)c1ccc(-n2c(N[C@H](C)c3ccnn3C)nc3c(c2=O)C[C@@H](C)N(C(=O)c2ccc(Cl)c(Cl)c2)C3)cc1` (single isomer, unassigned) [Compound C372a], the EC50 in data set [1] (setting [2]) came out at 5.42 µM. Moreover, the CC50 at 3 days in “in vitro” (setting [3]) is > 50 µM.

Regarding `CC(C)Nc1nc2c(c(=O)n1-c1ccc(C(=O)N3CCOCC3)cc1)C[C@@H](C)N(C(=O)c1ccc(Cl)c(Cl)c1)C2` [Compound C168, (6R)-7-(3,4-dichlorobenzoyl)-6-methyl-3-[4-(morpholine-4-carbonyl)phenyl]-2-[(propan-2-yl)amino]-5,6,7,8-tetrahydropyrido[3,4-d]pyrimidin-4(3H)-one], the EC50 in data set [1] (setting [2]) stood at 0.24 µM. Also, the CC50 at 3 days in the data set “in vitro” (setting [3]) was > 50 µM.

For `CC(C)Nc1nc2c(c(=O)n1-c1ccc(C(=O)NCCN3CCOCC3)cc1)C[C@@H](C)N(C(=O)c1ccc(Cl)c(Cl)c1)C2` [Compound C203, 4-[(6R)-7-(3,4-dichlorobenzoyl)-6-methyl-4-oxo-2-[(propan-2-yl)amino]-5,6,7,8-tetrahydropyrido[3,4-d]pyrimidin-3(4H)-yl]-N-[2-(morpholin-4-yl)ethyl]benzamide], the EC50 in data set [1] (setting [2]) is 0.15 µM. For the same compound, the cytotoxic concentration (CC50) at 3 days in the data set “in vitro” (setting [3]) is > 50 µM.

Regarding `Cc1noc(C)c1-c1ccc(-n2c(NC(C)C)nc3c(c2=O)C[C@@H](C)N(C(=O)c2ccc(Cl)c(Cl)c2)C3)cn1` [Compound C264, (6R)-7-(3,4-dichlorobenzoyl)-3-[6-(3,5-dimethyl-1,2-oxazol-4-yl)pyridin-3-yl]-6-methyl-2-[(propan-2-yl)amino]-5,6,7,8-tetrahydropyrido[3,4-d]pyrimidin-4(3H)-one], the concentration giving a half-maximal response (EC50) in data set [1] (setting [2]) was 0.26 µM. Also, in “in vitro” (setting [3]), the CC50 at 3 days is > 50 µM.

Regarding `CNC(=O)c1ccc(-n2c(N[C@@H](c3ccccc3)C3CC3)nc3c(c2=O)C[C@@H](C)N(C(=O)c2ccc(Cl)c(Cl)c2)C3)cc1` (single isomer, unassigned) [Compound C342, 4-[(6R)-2-{[(*R)-cycopropyl(phenyl)methyl]amino}-7-(3,4-dichlorobenzoyl)-6-methyl-4-oxo-5,6,7,8-tetrahydropyrido[3,4-d]pyrimidin-3(4H)-yl]-N-methylbenzamide], the EC50 in data set [1] (setting [2]) came to 0.37 µM. In the data set “in vitro” (setting [3]), the 50% cytotoxic concentration (CC50) at 3 days was 16 µM.

Turning to `CNC(=O)c1cc(-n2c(NC(C)C)nc3c(c2=O)C[C@@H](C)N(C(=O)c2ccc(Cl)c(Cl)c2)C3)n(C)n1` [Compound C354, 5-[(6R)-7-(3,4-dichlorobenzoyl)-6-methyl-4-oxo-2-[(propan-2-yl)amino]-5,6,7,8-tetrahydropyrido[3,4-d]pyrimidin-3(4H)-yl]-N,1-dimethyl-1H-pyrazole-3-carboxamide], in data set [1] (setting [2]), the EC50 turned out to be 0.16 µM. Besides, the CC50 at 3 days in the data set “in vitro” (setting [3]) is > 50 µM.

As for `CNC(=O)c1ccc(-n2c(N[C@H]3CC3(C)C)nc3c(c2=O)C[C@@H](C)N(C(=O)c2ccc(Cl)c(Cl)c2)C3)cc1` [Compound C334, 4-[(6R)-7-(3,4-dichlorobenzoyl)-2-{[(1S)-2,2-dimethylcyclopropyl]amino}-6-methyl-4-oxo-5,6,7,8-tetrahydropyrido[3,4-d]pyrimidin-3(4H)-yl]-N-methylbenzamide], the EC50 in data set [1] (setting [2]) came out at 1.89 µM. Also, the CC50 at 3 days in “in vitro” (setting [3]) was > 50 µM.

Take `CNC(=O)c1ccc(-n2c(NC(C)C)nc3c(c2=O)C[C@@H](C)N(C(=O)c2ccc(Cl)c(Cl)c2)C3)cc1OC` [Compound C317, 4-[(6R)-7-(3,4-dichlorobenzoyl)-6-methyl-4-oxo-2-[(propan-2-yl)amino]-5,6,7,8-tetrahydropyrido[3,4-d]pyrimidin-3(4H)-yl]-2-methoxy-N-methylbenzamide]: the concentration giving a half-maximal response (EC50) in data set [1] (setting [2]) was found to be 0.14 µM. Further, the CC50 at 3 days in the data set “in vitro” (setting [3]) was > 50 µM.

For `COc1ccc(CNc2nc3c(c(=O)[nH]2)CCN(C(=O)c2ccc(Cl)c(C#N)c2)C3)cc1` [Compound C103, 2-chloro-5-[2-{[(4-methoxyphenyl)methyl]amino}-4-oxo-4,5,6,8-tetrahydropyrido[3,4-d]pyrimidine-7(3H)-carbonyl]benzonitrile], the EC50 in data set [1] (setting [2]) is 18.3 µM. Further, in “in vitro” (setting [3]), the CC50 at 3 days was > 50 µM.

As for `COc1cc(C(=O)NC2CC2)ccc1-n1c(NC(C)C)nc2c(c1=O)C[C@@H](C)N(C(=O)c1ccc(Cl)c(C(F)(F)F)c1)C2` (single isomer, unassigned) [Compound C678a], the EC50 in data set [1] (setting [4]) was 0.04 µM. This compound returned a CC50 at 3 days in the data set “in vitro” (setting [5]) of 43 µM.

For `COc1ccccc1-n1c(NCc2nccs2)nc2c(c1=O)CCN(C(=O)c1ccc(Cl)c(Cl)c1)C2` [Compound C13, 7-(3,4-dichlorobenzoyl)-3-(2-methoxyphenyl)-2-{[(1,3-thiazol-2-yl)methyl]amino}-5,6,7,8-tetrahydropyrido[3,4-d]pyrimidin-4(3H)-one], in data set [1] (setting [2]), the EC50 was 8.75 µM. Moreover, the midpoint of cytotoxicity in the data set “in vitro” (4-days incubation (values marked with *), ATPlite), the CC50 at 4 days, lay at 38.9 µM.

For `CNC(=O)c1ccc(-n2c(NC(C)C)nc3c(c2=O)C[C@@H](C)N(C(=O)c2ccc(C)c(Cl)c2)C3)cc1` [Compound C514], in data set [1] (setting [4]), the EC50 turned out to be 0.61 µM. Further, the CC50 at 3 days in the data set “in vitro” (setting [5]) was > 50 µM.

For `CNC(=O)c1ccc(-n2c(NC(C)(C)C)nc3c(c2=O)C[C@@H](C)N(C(=O)c2ccc(Cl)c(C(F)(F)F)c2)C3)c(Cl)c1` (single isomer, unassigned) [Compound C677a], the concentration for a half-maximal effect (EC50) in data set [1] (setting [2]) is 0.02 µM. Besides, the CC50 at 3 days in the data set “in vitro” (3-days incubation (unmarked values), ATPlite viability) was > 50 µM.

On to `COc1ccc(CNc2nc3c(c(=O)[nH]2)CCN(C(=O)c2ccc(C#N)c(Cl)c2)C3)cc1` [Compound C82, 2-chloro-4-[2-{[(4-methoxyphenyl)methyl]amino}-4-oxo-4,5,6,8-tetrahydropyrido[3,4-d]pyrimidine-7(3H)-carbonyl]benzonitrile], for which the EC50 in data set [1] (setting [2]) was found to be 23.4 µM. Also, the CC50 at 3 days in “in vitro” (setting [3]) is > 50 µM.

Take `CNC(=O)c1ccc(-n2c(N[C@H](C)c3cccnc3)nc3c(c2=O)C[C@@H](C)N(C(=O)c2ccc(Cl)c(Cl)c2)C3)cc1` (single isomer, unassigned) [Compound C377a]: the EC50 in data set [1] (setting [4]) turned out to be 0.82 µM. Moreover, the CC50 at 3 days in the data set “in vitro” (setting [5]) is > 50 µM.

Consider `CNC(=O)c1ccc(-n2c(O[C@H](C)C(C)C)nc3c(c2=O)C[C@@H](C)N(C(=O)c2ccc(Cl)c(Cl)c2)C3)cc1` [Compound C458], for which, in data set [1] (setting [4]), the EC50 is 0.06 µM. For the same compound, it took 24.8 µM to reach half-maximal cytotoxicity in the data set “in vitro” (setting [5]) (CC50 at 3 days).

On to `CNC(=O)c1ccc(-n2c(N[C@@H](C)c3cccnc3)nc3c(c2=O)C[C@@H](C)N(C(=O)c2ccc(Cl)c(Cl)c2)C3)cc1` (single isomer, unassigned) [Compound C377b], for which the EC50 in data set [1] (setting [2]) was 3.95 µM. Also, in “in vitro” (setting [3]), the CC50 at 3 days was > 50 µM.

As to `CNC(=O)c1cc(-n2c(NC(C)C)nc3c(c2=O)C[C@@H](C)N(C(=O)c2ccc(Cl)c(C(F)(F)F)c2)C3)[nH]n1` [Compound C687], the EC50 in data set [1] (setting [4]) was 0.02 µM. Also, in “in vitro” (setting [5]), the CC50 at 3 days is > 50 µM.

Regarding `COc1ccc(CNc2nc3c(c(=O)n2C2CCS(=O)(=O)CC2)CCN(C(=O)c2ccc(Cl)c(Cl)c2)C3)cc1` [Compound C119, 4-[7-(3,4-dichlorobenzoyl)-2-{[(4-methoxyphenyl)methyl]amino}-4-oxo-5,6,7,8-tetrahydropyrido[3,4-d]pyrimidin-3(4H)-yl]-1λ^6-thiane-1,1-dione], in data set [1] (setting [2]), the EC50 worked out at 6.95 µM. In the data set “in vitro” (setting [3]), this compound displayed a CC50 at 3 days of 33.5 µM.

With `CNC(=O)c1ccc(-n2c(N[C@@H]3CCOc4ccccc43)nc3c(c2=O)C[C@@H](C)N(C(=O)c2ccc(Cl)c(Cl)c2)C3)cc1` (single isomer, unassigned) [Compound C526a], the EC50 in data set [1] (setting [4]) stood at 0.28 µM. For the same compound, the CC50 at 3 days in “in vitro” (setting [5]) is > 50 µM.
